The numbers were not newly measured in patent US12258594B2, “Cas proteins with reduced immunogenicity and methods of screening thereof” (THE BROAD INSTITUTE, INC., priority 2018, dated 2025), which cites them from elsewhere.

In series [1] the test system is dystrophin gene exon 51. The note with it: across 48 weeks.
Series [2] has as its system target DNA. The following applies: AsCpf1 mutants.
Series [3] relates to Factor VII. The note with it: LNP siRNA systems containing the lipid; hepatocytes in vivo.
The test system of series [4] is target sites with PAM. The following applies: for PAM of target sites that can be cleaved: AsCpf1 and variants; for activities at the altered PAMs: in vitro and in human cells.

In the case of eteplirsen, in series [1], the “average dystrophin positive fibers compared to baseline” value was 47%. As for E993A: E993A mutant of AsCpf1, the DNA cleavage activity result in series [2] is given as “almost no activity”. Regarding R951A: R951A mutant of AsCpf1, the DNA cleavage activity entry in series [2] was “reduced activities”. Take M604A: M604A mutant of AsCpf1: in series [2], the DNA cleavage activity result is listed as “reduced activities”. On to K548A: K548A mutant of AsCpf1, for which the DNA cleavage activity entry in series [2] is reported as “reduced activities”. 51228A: mutant of Ser1228 of AsCpf1: the DNA cleavage activity result in series [2] is listed as “comparable to that of wild-type AsCpf1”. For the compound K607A: K607A mutant of AsCpf1, in series [2], the DNA cleavage activity entry was “almost no activity”. With R176A: R176A mutant of AsCpf1, the DNA cleavage activity result in series [2] was “reduced activities”. With `CCCCC/C=C\C/C=C\CCCCCCCCOCC(CN(C)C)OCCCCCCCC/C=C\C/C=C\CCCCC` (stereo not shown) [DLinDMA, 1,2-dilinoleyloxy-3-N,N-dimethylaminopropane], in series [3], the “gene silencing potencies, series (rank order)” value (from here on “gene silencing potencies”) is listed as “DLinKC2-DMA>DLinKDMA>DLinDMA>>DLinDAP”. D1235A: D1235A mutant of AsCpf1: in series [2], the DNA cleavage activity entry is given as “reduced activity”. As to W382A: W382A mutant of AsCpf1, in series [2], the DNA cleavage activity entry is “reduced activity”. Regarding D1263A: D1263A mutant of AsCpf1, in series [2], the DNA cleavage activity entry is on record as “significantly reduced activity”. As for AsCpf1: Acidaminococcus sp. BV3L6 Cpf1, the “PAM of target sites that can be cleaved” value in series [4] is “TTTV”. Turning to R1226A: R1226A mutant of AsCpf1, the DNA cleavage activity result in series [2] is listed as “almost no activity”. In addition, the DNA strand cleaved result in series [2] (target and non-target strand) is “acts as a nickase that cleaves the non-target DNA strand, but not the target strand”. With `CCCCC/C=C\C/C=C\CCCCCCCC(=O)OCC(CN(C)C)OC(=O)CCCCCCC/C=C\C/C=C\CCCCC` (stereo not shown) [DLinDAP, 1,2-dilineoyl-3-dimethylammonium-propane], the “gene silencing potencies” value in series [3] is “DLinKC2-DMA>DLinKDMA>DLinDMA>>DLinDAP”.

For the compound “1,2-dilinoleyloxy-keto-N,N-dimethyl-3-aminopropane [DLinKDMA]”, the “gene silencing potencies” value in series [3] is listed as “DLinKC2-DMA>DLinKDMA>DLinDMA>>DLinDAP”. With D908A: D908A mutant of AsCpf1, the DNA cleavage activity result in series [2] was “almost no activity”. As for “S542R/K607R: AsCpf1 variant with the mutations S542R/K607R”, in series [4], the “PAM of target sites that can be cleaved” value was “TYCV/CCCC” and the “activities at the altered PAMs” value was “enhanced activities”. As to “S542R/K548V/N552R: AsCpf1 variant with the mutations S542R/K548V/N552R”, in series [4], the “PAM of target sites that can be cleaved” value is listed as “TATV” and the “activities at the altered PAMs” value is on record as “enhanced activities”. G783P: G783P mutant of AsCpf1: the DNA cleavage activity entry in series [2] was “reduced activities”.

In the case of R192A: R192A mutant of AsCpf1, in series [2], the DNA cleavage activity result was “reduced activities”.

As to `CCCCC/C=C\C/C=C\CCCCCCCCC1(CCCCCCCC/C=C\C/C=C\CCCCC)OCC(CCN(C)C)O1` (stereo not shown) [DLinKC2-DMA, 1,2-dilinoleyl-4-(2-dimethylaminoethyl)-[1,3]-dioxolane], the “gene silencing potencies” value in series [3] is on record as “DLinKC2-DMA>DLinKDMA>DLinDMA>>DLinDAP”.
